Test results as given in ChEMBL document CHEMBL3400026, “Synthesis of novel 24-amino-25,26,27-trinorlanost-8-enes: cytotoxic and apoptotic potential in U937 cells” (Bioorg Med Chem, 2015).
The source made the active and inactive calls. The rule behind the calls is not given here.

Assays:
U-937 [1] = assay: Induction of apoptosis in human U937 cells assessed as caspase 3/7 level at 10 ug/ml after 24 hrs by Caspase-Glo 3/7 assay relative to solvent control; format: functional
[2] = Cytotoxicity against human U937 cells after 24 hrs by MTT assay; format: functional, cell-based; conditions: U-937, 24 h
U-937 [3] = assay: Induction of apoptosis in human U937 cells assessed as DNA fragmentation measured as DNA laddering at 5 ug/ml after 24 hrs by agarose gel electophoresis relative to solvent control; format: functional, cell-based
U-937 [4] = assay: Induction of apoptosis in human U937 cells assessed as condensed/fragmented nuclei at 5 ug/ml after 24 hrs using Hoechst 33342 staining by microscopy relative to solvent control; format: functional
U-937 [5] = assay: Induction of apoptosis in human U937 cells assessed as condensed/fragmented nuclei at 10 ug/ml after 24 hrs using Hoechst 33342 staining by microscopy relative to solvent control; format: functional
U-937 [6] = assay: Induction of apoptosis in human U937 cells assessed as caspase 3/7 level at 5 ug/ml after 24 hrs by Caspase-Glo 3/7 assay relative to solvent control; format: functional
U-937 [7] = assay: Induction of apoptosis in human U937 cells assessed as caspase 3/7 level at 25 ug/ml after 24 hrs by Caspase-Glo 3/7 assay relative to solvent control; format: functional
U-937 [8] = assay: Induction of apoptosis in human U937 cells assessed as condensed/fragmented nuclei at 25 ug/ml after 24 hrs using Hoechst 33342 staining by microscopy relative to solvent control; format: functional
U-937 [9] = assay: Induction of apoptosis in human U937 cells assessed as DNA fragmentation measured as DNA laddering at 10 ug/ml after 24 hrs by agarose gel electophoresis relative to solvent control; format: functional, cell-based
U-937 [10] = assay: Induction of apoptosis in human U937 cells assessed as caspase 3/7 level at 50 ug/ml after 24 hrs by Caspase-Glo 3/7 assay relative to solvent control; format: functional
U-937 [11] = assay: Induction of apoptosis in human U937 cells assessed as condensed/fragmented nuclei at 50 ug/ml after 24 hrs using Hoechst 33342 staining by microscopy relative to solvent control; format: functional
U-937 [12] = assay: Induction of apoptosis in human U937 cells assessed as DNA fragmentation measured as DNA laddering at 25 ug/ml after 24 hrs by agarose gel electophoresis relative to solvent control; format: functional, cell-based
U-937 [13] = assay: Induction of apoptosis in human U937 cells assessed as caspase 3/7 level at 12 ug/ml after 24 hrs by Caspase-Glo 3/7 assay relative to solvent control; format: functional
U-937 [14] = assay: Induction of apoptosis in human U937 cells assessed as condensed/fragmented nuclei at 12 ug/ml after 24 hrs using Hoechst 33342 staining by microscopy relative to solvent control; format: functional
U-937 [15] = assay: Induction of apoptosis in human U937 cells assessed as DNA fragmentation measured as DNA laddering at 12 ug/ml after 24 hrs by agarose gel electophoresis relative to solvent control; format: functional, cell-based

Row | SMILES | Activity (U-937 [1]) | IC50 [2] | Activity (U-937 [4]) | Activity (U-937 [5]) | Activity (U-937 [6]) | further results
1 | CCN(CC)CCC[C@@H](C)[C@H]1CC[C@@]2(C)C3=C(CC[C@]12C)[C@@]1(C)CC[C@H](O)C(C)(C)[C@@H]1CC3 | 2.4% | 3.5 µM | 3.7% | 3% | 2.3% | Activity (U-937 [3]): Active
2 | CCN(CC)CCC[C@@H](C)[C@H]1CC[C@@]2(C)C3=C(CC[C@]12C)[C@@]1(C)CC[C@H](OC(C)=O)C(C)(C)[C@@H]1CC3 | 4.9% | 16.4 µM | – | 6.9% | – | Activity (U-937 [7]): 7.3%; Activity (U-937 [8]): 6.6%; Activity (U-937 [9]): Active
3 | CC(=O)O[C@H]1CC[C@]2(C)C3=C(CC[C@H]2C1(C)C)[C@]1(C)CC[C@H]([C@H](C)CCCN2CCOCC2)[C@@]1(C)CC3 | – | 148 µM | – | – | – | –
4 | CC[N+]([O-])(CC)CCC[C@@H](C)[C@H]1CC[C@@]2(C)C3=C(CC[C@]12C)[C@@]1(C)CC[C@H](OC(C)=O)C(C)(C)[C@@H]1CC3 | – | 21.1 µM | – | – | – | Activity (U-937 [7]): 4.4%; Activity (U-937 [10]): 4.3%; Activity (U-937 [8]): 7%; Activity (U-937 [11]): 5%; Activity (U-937 [12]): Active
5 | COc1cc([C@@H]2c3cc4c(cc3[C@@H](O[C@@H]3O[C@@H]5CO[C@@H](C)O[C@H]5[C@H](O)[C@H]3O)[C@H]3COC(=O)[C@H]23)OCO4)cc(OC)c1O [ETOPOSIDE] | 5.9% | 1.5 µM | 23.7% | 24.8% | 6.4% | Activity (U-937 [3]): Active
6 | CC(C)CCC[C@@H](C)[C@H]1CC[C@H]2[C@@H]3C(=O)C=C4C[C@@H](O)CC[C@]4(C)[C@H]3CC[C@]12C [7-OXOCHOLESTEROL] | – | – | – | – | – | Activity (U-937 [13]): 2.2%; Activity (U-937 [14]): 7.3%; Activity (U-937 [15]): Active
7 | C[C@H](CCCN1CCOCC1)[C@H]1CC[C@@]2(C)C3=C(CC[C@]12C)[C@@]1(C)CC[C@H](O)C(C)(C)[C@@H]1CC3 | – | 128 µM | – | – | – | –
8 | C[C@H](CCCN1CCCCC1)[C@H]1CC[C@@]2(C)C3=C(CC[C@]12C)[C@@]1(C)CC[C@H](O)C(C)(C)[C@@H]1CC3 | 2.1% | 1.9 µM | 7.4% | 5.5% | 2% | Activity (U-937 [3]): Active
9 | CC(=O)O[C@H]1CC[C@]2(C)C3=C(CC[C@H]2C1(C)C)[C@]1(C)CC[C@H]([C@H](C)CCCN2CCN(CCO)CC2)[C@@]1(C)CC3 | 7.8% | 9.3 µM | 7.3% | 10.2% | 6.6% | Activity (U-937 [9]): Active
10 | C[C@H](CCCNc1ccccc1)[C@H]1CC[C@@]2(C)C3=C(CC[C@]12C)[C@@]1(C)CC[C@H](O)C(C)(C)[C@@H]1CC3 | – | 132 µM | – | – | – | –
11 | C[C@H](CCCN1CCN(CCO)CC1)[C@H]1CC[C@@]2(C)C3=C(CC[C@]12C)[C@@]1(C)CC[C@H](O)C(C)(C)[C@@H]1CC3 | 1.3% | 2.7 µM | 7.6% | 6.6% | 1.2% | –
12 | CC(=O)O[C@H]1CC[C@]2(C)C3=C(CC[C@H]2C1(C)C)[C@]1(C)CC[C@H]([C@H](C)CCCN2CCCCC2)[C@@]1(C)CC3 | – | 14.9 µM | – | – | – | Activity (U-937 [7]): 1.9%; Activity (U-937 [10]): 3.4%; Activity (U-937 [8]): 8.8%; Activity (U-937 [11]): 10.6%; Activity (U-937 [12]): Active
13 | CC(=O)O[C@H]1CC[C@]2(C)C3=C(CC[C@H]2C1(C)C)[C@]1(C)CC[C@H]([C@H](C)CCCNc2ccccc2)[C@@]1(C)CC3 | – | 367 µM | – | – | – | –
